Experimental data from patent US10766894B2, “Aza-indazole compounds for use in tendon and/or ligament injuries” (NOVARTIS AG, priority 2016, dated 2020).
Read-outs that look alike come from different tables or passages of the source.

Tests used:
[1] = system: mouse immortalized TT-D6 Scx-luciferase (ScxL) cell line; transcriptional activation of Scleraxis (Scx) gene; assay: SCX-LUC in vitro assay (scleraxis promoter luciferase reporter); assay type: cell-based; details: Mus musculus, 96 h
[2] = system: Scleraxis (Scx) gene expression in rat tail tendon fascicles; assay: Ex vivo assay, tendon fascicles, Scleraxis mRNA (qPCR); assay type: cell-based, Sprague Dawley rat; details: 96 h
[3] = system: Tenomodulin (Tnmd) gene expression in rat tail tendon fascicles; assay: Ex vivo assay, tendon fascicles, Tenomodulin mRNA (qPCR); assay type: cell-based, Sprague Dawley rat; details: 96 h
[4] = system: collagen type 1 (Col1a2) gene expression in rat tail tendon fascicles; assay: Ex vivo assay, tendon fascicles, collagen type 1 mRNA (qPCR); assay type: cell-based, Sprague Dawley rat; details: 96 h
[5] = Examples table, TT-D6 Scx-luciferase cells, 1 ng/ml TGFβ1, four days, read-out: Scx-Luc (EC50 μM)
[6] = Examples table, rat tail tendon fascicles, four days, delta-delta Ct, read-out: Ex vivo Scx (EC50 μM)
[7] = Examples table, rat tail tendon fascicles, four days, delta-delta Ct, read-out: Ex vivo Tnmd (EC50 μM)
[8] = Examples table, rat tail tendon fascicles, four days, delta-delta Ct, read-out: Ex vivo Col1a2 (EC50 μM)
[9] = Rattus norvegicus, read-out: Ex vivo SCX (EC50 uM)
[10] = Rattus norvegicus, read-out: Ex vivo Tnmd (EC50 uM)
[11] = Rattus norvegicus, read-out: Ex vivo Col1a2 (EC50 uM)

Row | Structure (SMILES) | EC50 [1, 5] [µM] | EC50 [2, 6] [µM] | EC50 [3, 7] [µM] | EC50 [4, 8] [µM] | further results
1 | Cc1cc(S(=O)(=O)NC2CC(F)(F)C2)ccc1-c1ccc2[nH]nc(N)c2n1 [Example 8, 4-(3-amino-1H-pyrazolo[4,3-b]pyridin-5-yl)-N-(3,3-difluorocyclobutyl)-3-methylbenzenesulfonamide] | 0.346 | 0.11 | 0.261 | 1.29 | 
2 | N#CC[C@H](C1CCCC1)n1cc(-c2ncnc3[nH]ccc23)cn1 [reference compound] |  |  |  |  | EC50 ([1]; read-out: Scx-Luc (EC50 uM)): 0.12 µM; EC50 [2, 9]: 3.13 µM; EC50 [3, 10]: 0.74 µM; EC50 [4, 11]: 2.64 µM
3 | Nc1n[nH]c2ccc(-c3ccc(NS(=O)(=O)c4ccc(Cl)cc4)cc3Cl)nc12 [Example 3, N-(4-(3-amino-1H-pyrazolo[4,3-b]pyridin-5-yl)-3-chlorophenyl)-4-chlorobenzenesulfonamide] | 0.801 | > 10 | 1.15 | 3.08 | 
4 | Nc1n[nH]c2ccc(-c3ccc(S(=O)(=O)N4CC5CC5C4)cc3Cl)nc12 (stereo not shown) [Example 63, 5-(4-(3-azabicyclo[3.1.0]hexan-3-ylsulfonyl)-2-chlorophenyl)-1H-pyrazolo[4,3-b]pyridin-3-amine] | 1.24 | 2.12 | 4.6 | 3.34 | 
5 | O=C(Nc1nc2cccc(-c3ccc(CN4CCS(=O)(=O)CC4)cc3)n2n1)C1CC1 [reference compound] |  |  |  |  | EC50 ([1]; read-out: Scx-Luc (EC50 uM)): 4.32 µM; EC50 [2, 9]: 5.34 µM; EC50 [3, 10]: 6.93 µM; EC50 [4, 11]: 5.01 µM
6 | Nc1n[nH]c2ccc(-c3ccc(S(=O)(=O)N[C@H]4C[C@](O)(C(F)(F)F)C4)cc3Cl)nc12 [Example 1] | 0.183 | 2.11 | 0.804 | 1.59 | 
7 | CC(=O)N1CCOc2ccc(S(=O)(=O)Nc3ccc(-c4ccc5[nH]nc(N)c5n4)c(Cl)c3)cc21 [Example 86, 4-acetyl-N-(4-(3-amino-1H-pyrazolo[4,3-b]pyridin-5-yl)-3-chlorophenyl)-3,4-dihydro-2H-benzo[b][1,4]oxazine-6-sulfonamide] | 5.39 | > 10 | 4.86 | > 10 | 
8 | N#C[C@H]1CC(=O)CC[C@@H]1n1cc(C(N)=O)c(Nc2ccc(C(F)(F)F)cc2)n1 [reference compound] |  |  |  |  | EC50 ([1]; Table 1, TT-D6 Scx-luciferase cells, 1 ng/ml TGFβ1, four days, read-out: Scx-Luc (EC50 uM)): 1.24 µM; EC50 ([2]; Table 1, rat tail tendon fascicles, four days, delta-delta Ct, read-out: Ex vivo SCX (EC50 uM)): 0.85 µM; EC50 ([3]; Table 1, rat tail tendon fascicles, four days, delta-delta Ct, read-out: Ex vivo Tnmd (EC50 uM)): 4.83 µM; EC50 ([4]; Table 1, rat tail tendon fascicles, four days, delta-delta Ct, read-out: Ex vivo Col1a2 (EC50 uM)): 0.94 µM
9 | Nc1n[nH]c2ccc(-c3ccc(S(=O)(=O)NC4CCS(=O)(=O)C4)cc3Cl)nc12 (stereo not shown) [Example 31, 4-(3-amino-1H-pyrazolo[4,3-b]pyridin-5-yl)-3-chloro-N-(1,1-dioxidotetrahydrothiophen-3-yl)benzenesulfonamide] | 0.411 | 2.31 | 2.76 | 2.63 | 
10 | Nc1n[nH]c2ccc(-c3ccc(NS(=O)(=O)c4ccc5c(c4)OCO5)cc3Cl)nc12 [Example 11, N-(4-(3-amino-1H-pyrazolo[4,3-b]pyridin-5-yl)-3-chlorophenyl)benzo[d][1,3]dioxole-5-sulfonamide] | 0.801 | 3.05 | 0.841 | 2.46 | 
11 | Nc1n[nH]c2ccc(-c3ccc(S(=O)(=O)NC4CCS(=O)(=O)CC4)cc3Cl)nc12 [Example 50, 4-(3-amino-1H-pyrazolo[4,3-b]pyridin-5-yl)-3-chloro-N-(1,1-dioxidotetrahydro-2H-thiopyran-4-yl)benzenesulfonamide] | > 10 | 2.33 | 6.3 | 6.37 | 
12 | CC[C@@](C)(Nc1ccnc(-c2c[nH]c3ncccc23)n1)C(=O)NCC(F)(F)F [reference compound] |  |  |  |  | EC50 ([1]; read-out: Scx-Luc (EC50 uM)): 0.03 µM; EC50 [2, 9]: 1.65 µM; EC50 [3, 10]: 1.77 µM; EC50 [4, 11]: 0.88 µM
13 | Cc1cc(S(=O)(=O)N[C@@H]2CC[C@H](O)C2)ccc1-c1ccc2[nH]nc(N)c2n1 [Example 19, 4-(3-amino-1H-pyrazolo[4,3-b]pyridin-5-yl)-N-((1R,3S)-3-hydroxycyclopentyl)-3-methylbenzenesulfonamide] | 1.7 |  |  |  | 
